Results published in PubChem BioAssay (NCI).
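Grown in 96-well plates, cells were treated for 48 hours with each compound at five concentrations. Insufficient inhibition: endpoint recorded as highest concentration tested. GI50: concentration for 50% inhibition of growth. TGI is the concentration that stops growth completely.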

Experiments:
Assay in all cases: growth of human tumour cells (NCI), 48 h
NCI-H522 lung = test system: NCI-H522 lung
SN12C renal = test system: SN12C renal
CAKI-1 renal = test system: CAKI-1 renal
HT29 colon = test system: HT29 colon
NCI-H226 lung = test system: NCI-H226 lung
786-0 renal = test system: 786-0 renal
MALME-3M melanoma = test system: MALME-3M melanoma
NCI-H460 lung = test system: NCI-H460 lung
SK-OV-3 ovarian = test system: SK-OV-3 ovarian
A549 NSCLC = test system: A549 NSCLC
HOP-62 NSCLC = test system: HOP-62 NSCLC
K-562 leukemia = test system: K-562 leukemia
PC-3 prostate = test system: PC-3 prostate
HCT-15 colon = test system: HCT-15 colon
SR leukemia = test system: SR leukemia
SF-268 CNS = test system: SF-268 CNS
IGROV1 ovarian = test system: IGROV1 ovarian
MDA-MB-231 breast = test system: MDA-MB-231 breast
A498 renal = test system: A498 renal
HCT-116 colon = test system: HCT-116 colon
EKVX NSCLC = test system: EKVX NSCLC
KM12 colon = test system: KM12 colon
MDA-MB-435 = test system: MDA-MB-435
MDA-MB-468 breast = test system: MDA-MB-468 breast
SK-MEL-2 melanoma = test system: SK-MEL-2 melanoma
LOX IMVI melanoma = test system: LOX IMVI melanoma
T-47D breast = test system: T-47D breast
HS 578T breast = test system: HS 578T breast
HL-60(TB) leukemia = test system: HL-60(TB) leukemia
SNB-75 CNS = test system: SNB-75 CNS
RPMI-8226 leukemia = test system: RPMI-8226 leukemia
CCRF-CEM leukemia = test system: CCRF-CEM leukemia
UACC-62 melanoma = test system: UACC-62 melanoma
M14 melanoma = test system: M14 melanoma
HCC-2998 colon = test system: HCC-2998 colon
SNB-19 CNS = test system: SNB-19 CNS
HOP-92 NSCLC = test system: HOP-92 NSCLC
RXF 393 renal = test system: RXF 393 renal
SW-620 colon = test system: SW-620 colon
TK-10 renal = test system: TK-10 renal
SF-539 CNS = test system: SF-539 CNS
COLO 205 colon = test system: COLO 205 colon
U251 CNS = test system: U251 CNS
SK-MEL-5 melanoma = test system: SK-MEL-5 melanoma
OVCAR-4 ovarian = test system: OVCAR-4 ovarian
UACC-257 melanoma = test system: UACC-257 melanoma
OVCAR-5 ovarian = test system: OVCAR-5 ovarian
OVCAR-8 ovarian = test system: OVCAR-8 ovarian
ACHN renal = test system: ACHN renal
MCF7 breast = test system: MCF7 breast
DU-145 prostate = test system: DU-145 prostate
UO-31 renal = test system: UO-31 renal
BT-549 breast = test system: BT-549 breast
MOLT-4 leukemia = test system: MOLT-4 leukemia
NCI-H23 lung = test system: NCI-H23 lung
OVCAR-3 ovarian = test system: OVCAR-3 ovarian
SF-295 CNS = test system: SF-295 CNS
SK-MEL-28 melanoma = test system: SK-MEL-28 melanoma

`O=C1Nc2cc(Cl)ccc2/C1=C/c1cccc(OCc2ccccn2)c1` gave a GI50 (NCI-H522 lung) of 2.43 µM, a TGI (NCI-H522 lung) of 6.63 µM and a GI50 (SN12C renal) of 6.38 µM. It also gave a TGI (SN12C renal) of 26.1 µM, a GI50 (CAKI-1 renal) of 2.73 µM and a TGI (CAKI-1 renal) of 14.1 µM. The GI50 (HT29 colon) was 4.47 µM, the TGI (HT29 colon) was 19.4 µM and the GI50 (NCI-H226 lung) was 11.3 µM. It also gave a TGI (NCI-H226 lung) of 70.4 µM, a GI50 (786-0 renal) of 14 µM and a TGI (786-0 renal) of 28.9 µM. The GI50 (MALME-3M melanoma) was 4.23 µM, the TGI (MALME-3M melanoma) was 46.6 µM and the GI50 (NCI-H460 lung) was 3.15 µM. For the same compound, the TGI (NCI-H460 lung) was 12.3 µM, the GI50 (SK-OV-3 ovarian) was 10.3 µM and the TGI (SK-OV-3 ovarian) was 26.8 µM. For the same compound, the GI50 (A549 NSCLC) was 13 µM, the TGI (A549 NSCLC) was 62.2 µM and the GI50 (HOP-62 NSCLC) was 6.95 µM. The TGI (HOP-62 NSCLC) was 25 µM, the GI50 (K-562 leukemia) was 2.82 µM and the TGI (K-562 leukemia) was greater than 100 µM. The GI50 (PC-3 prostate) was 5.52 µM, the TGI (PC-3 prostate) was greater than 100 µM and the GI50 (HCT-15 colon) was 2.71 µM. For the same compound, the TGI (HCT-15 colon) was 16.1 µM, the GI50 (SR leukemia) was 2.58 µM and the TGI (SR leukemia) was 10.3 µM. The GI50 (SF-268 CNS) was 4.82 µM, the TGI (SF-268 CNS) was greater than 100 µM and the GI50 (IGROV1 ovarian) was 3.89 µM. The TGI (IGROV1 ovarian) was 22.9 µM, the GI50 (MDA-MB-231 breast) was 2.46 µM and the TGI (MDA-MB-231 breast) was 9.13 µM. The GI50 (A498 renal) was 22.1 µM, the TGI (A498 renal) was 76.9 µM and the GI50 (HCT-116 colon) was 3.07 µM. The TGI (HCT-116 colon) was 10.5 µM, the GI50 (EKVX NSCLC) was 5.41 µM and the TGI (EKVX NSCLC) was 67.4 µM. It also gave a GI50 (KM12 colon) of 3.77 µM, a TGI (KM12 colon) of 87.4 µM and a GI50 (MDA-MB-435) of 1.92 µM. It also gave a TGI (MDA-MB-435) of 4.25 µM, a GI50 (MDA-MB-468 breast) of 2.54 µM and a TGI (MDA-MB-468 breast) of 9.08 µM. It also gave a GI50 (SK-MEL-2 melanoma) of 2.9 µM, a TGI (SK-MEL-2 melanoma) of 9.3 µM and a GI50 (LOX IMVI melanoma) of 2.06 µM. For the same compound, the TGI (LOX IMVI melanoma) was 4.92 µM, the GI50 (T-47D breast) was 3.01 µM and the TGI (T-47D breast) was 22.6 µM. The GI50 (HS 578T breast) was 2.01 µM, the TGI (HS 578T breast) was 6.72 µM and the GI50 (HL-60(TB) leukemia) was 2.13 µM. It also gave a TGI (HL-60(TB) leukemia) of 5.1 µM, a GI50 (SNB-75 CNS) of 3.05 µM and a TGI (SNB-75 CNS) of 38.8 µM. It also gave a GI50 (RPMI-8226 leukemia) of 2.93 µM, a TGI (RPMI-8226 leukemia) of 40.3 µM and a GI50 (CCRF-CEM leukemia) of 3.1 µM. It also gave a TGI (CCRF-CEM leukemia) greater than 100 µM, a GI50 (UACC-62 melanoma) of 2.7 µM and a TGI (UACC-62 melanoma) of 13.9 µM. The GI50 (M14 melanoma) was 4.43 µM, the TGI (M14 melanoma) was 16.8 µM and the GI50 (HCC-2998 colon) was 11.4 µM. The TGI (HCC-2998 colon) was 26.2 µM, the GI50 (SNB-19 CNS) was 11 µM and the TGI (SNB-19 CNS) was 27.8 µM. The GI50 (HOP-92 NSCLC) was 1.85 µM, the TGI (HOP-92 NSCLC) was 8.15 µM and the GI50 (RXF 393 renal) was 3.08 µM. The TGI (RXF 393 renal) was 14.5 µM, the GI50 (SW-620 colon) was 3.1 µM and the TGI (SW-620 colon) was 14.3 µM. For the same compound, the GI50 (TK-10 renal) was 15.4 µM, the TGI (TK-10 renal) was 34.7 µM and the GI50 (SF-539 CNS) was 2.63 µM. For the same compound, the TGI (SF-539 CNS) was 8.05 µM, the GI50 (COLO 205 colon) was 10.5 µM and the TGI (COLO 205 colon) was 22.2 µM. For the same compound, the GI50 (U251 CNS) was 4.21 µM, the TGI (U251 CNS) was 15.4 µM and the GI50 (SK-MEL-5 melanoma) was 2.81 µM. The TGI (SK-MEL-5 melanoma) was 13.4 µM, the GI50 (OVCAR-4 ovarian) was 5.73 µM and the TGI (OVCAR-4 ovarian) was 35.5 µM. It also gave a GI50 (UACC-257 melanoma) of 7.63 µM, a TGI (UACC-257 melanoma) greater than 100 µM and a GI50 (OVCAR-5 ovarian) of 7.62 µM. The TGI (OVCAR-5 ovarian) was 26.8 µM, the GI50 (OVCAR-8 ovarian) was 3.79 µM and the TGI (OVCAR-8 ovarian) was 16.3 µM. For the same compound, the GI50 (ACHN renal) was 6.07 µM, the TGI (ACHN renal) was 19.9 µM and the GI50 (MCF7 breast) was 1.93 µM. The TGI (MCF7 breast) was 11.4 µM, the GI50 (DU-145 prostate) was 10.7 µM and the TGI (DU-145 prostate) was greater than 100 µM. The GI50 (UO-31 renal) was 3.03 µM, the TGI (UO-31 renal) was 25 µM and the GI50 (BT-549 breast) was 3.92 µM. For the same compound, the TGI (BT-549 breast) was 16.5 µM, the GI50 (MOLT-4 leukemia) was 3.02 µM and the TGI (MOLT-4 leukemia) was 11.3 µM. It also gave a GI50 (NCI-H23 lung) of 3.39 µM, a TGI (NCI-H23 lung) of 16 µM and a GI50 (OVCAR-3 ovarian) of 3.33 µM. The TGI (OVCAR-3 ovarian) was 16.2 µM, the GI50 (SF-295 CNS) was 5.69 µM and the TGI (SF-295 CNS) was 25 µM. It also gave a GI50 (SK-MEL-28 melanoma) of 5.66 µM and a TGI (SK-MEL-28 melanoma) of 32.3 µM.
